Drawing on ChEMBL document CHEMBL1127275, “Peptide based P21RAS farnesyl transferase inhibitors: systematic modification of the tetrapeptide CA1A2X motif” (Bioorg Med Chem Lett, 1994), this text covers IC50 for 24 compounds.

For this assay, the target named is Protein farnesyltransferase (Rattus norvegicus, UniProt Q02293+Q04631). The experiment in a line: In vitro inhibitory concentration evaluated against P21ras Farnesyl transferase. The assay is classed as protein-complex assay.
For `CN[C@@H](CS)C(=O)N[C@H](C(=O)N[C@@H](Cc1ccccc1)C(=O)N[C@@H](CCSC)C(=O)O)C(C)C`, the IC50 amounted to 420 nM. In other words, the sub-micromolar range.

Turning to `CSCC[C@H](NC(=O)[C@H](Cc1ccccc1)NC(=O)[C@H](C(C)C)N(C)C(=O)[C@@H](N)CS)C(=O)O`, the IC50 amounted to 250 nM.

`CSCC[C@H](NC(=O)[C@H](Cc1ccccc1)NC(=O)C1(NC(=O)[C@@H](N)CS)CCCCC1)C(=O)O` showed an IC50 of 1200 nM.

The compound `CSCC[C@H](NC(=O)[C@H](Cc1ccccc1)NC[C@@H](NC(=O)[C@@H](N)CS)C(C)C)C(=O)O` came in with an IC50 of 126 nM.

Consider `CSCC[C@H](NC(=O)[C@H](Cc1ccccc1)N(C)C(=O)[C@@H](NC(=O)[C@@H](N)CS)C(C)C)C(=O)O`, for which the half-maximal inhibitory concentration (IC50) was 360 nM.

`CSCC[C@H](NC(=O)[C@H](CCc1ccccc1)NC(=O)[C@@H](NC(=O)[C@@H](N)CS)C(C)C)C(=O)O` displayed an IC50 of 120 nM.

Turning to `CSCC[C@H](NC(=O)[C@H](Cc1ccccc1)NC(=O)[C@@H](NC(=O)[C@@H](N)CC(=O)O)C(C)C)C(=O)O`, it took 250000 nM to reach half-maximal inhibition (IC50).

As for `CSCC[C@H](NC(=O)[C@@H](NC(=O)[C@@H](NC(=O)[C@@H](N)CS)C(C)C)c1ccccc1)C(=O)O`, the IC50 is 696 nM. Compared with the last compound, the IC50 is about 360-fold lower.

In the case of `CSCC[C@H](NC(=S)[C@H](Cc1ccccc1)NC(=O)[C@@H](NC(=O)[C@@H](N)CS)C(C)C)C(=O)O`, inhibition was half-maximal at 17 nM (IC50).

As to `CSCC[C@H](NC(=O)[C@H](Cc1c[nH]c2ccccc12)NC(=O)[C@@H](NC(=O)[C@@H](N)CS)C(C)C)C(=O)O`, the IC50 turned out to be 14 nM.

On to `CSCC[C@H](NC(=O)[C@H](Cc1ccccc1)NC(=O)[C@@H](NC[C@@H](N)CS)C(C)C)C(=O)O`, for which the IC50 stood at 12 nM.

Consider `CSCC[C@H](NC(=O)[C@H](Cc1ccccc1)NC(=O)[C@@H](NC(=O)[C@@H](N)Cc1cnc[nH]1)C(C)C)C(=O)O`, for which the IC50 is 6800 nM.

In turn, `CSCC[C@H](NC(=O)[C@H](Cc1ccccc1)NC(=O)[C@@H](NC(=O)C[C@H](N)CS)C(C)C)C(=O)O` had a 50% inhibitory concentration (IC50) of 1800 nM.

Turning to `CC(C)[C@H](NC(=O)[C@@H](N)CS)C(=O)N[C@@H](Cc1ccccc1)C(=O)N[C@@H](Cc1ccccc1)C(=O)O`, half-maximal inhibition (IC50) required 400 nM.

In turn, `CSCC[C@H](NC(=O)[C@@H](NC(=O)[C@@H](NC[C@@H](N)CS)C(C)C)C(C)C)C(=O)O` came in with an IC50 of 29 nM.

Turning to `CSCC[C@H](NC(=O)[C@H](Cc1ccc2ccccc2c1)NC(=O)[C@@H](NC(=O)[C@@H](N)CS)C(C)C)C(=O)O`, the IC50 turned out to be 12 nM.

`CSCC[C@H](NC(=O)[C@@H](NC(=O)[C@@H](NC(=O)[C@@H](N)CS)C(C)C)C(C)C)C(=O)O` had an IC50 of 68 nM.

In turn, `CSCC[C@H](NC(=O)[C@H](Cc1ccccc1)NC(=O)[C@@H](NC(=O)[C@@H](N)CCC(=O)O)C(C)C)C(=O)O` showed a concentration for half-maximal inhibition (IC50) of 120000 nM.

The compound `CSCC[C@H](NC(=O)[C@H](Cc1ccccc1)NC(=O)[C@H](C)NC(=O)[C@@H](N)CS)C(=O)O` came in with an IC50 of 241 nM.

Compound `CSCC[C@H](NC(=O)[C@H](Cc1ccccc1)NC(=O)C(C)(C)NC(=O)[C@@H](N)CS)C(=O)O` registered an IC50 of 400 nM.

Compound `CSCC[C@@H](C(=O)O)N(C)C(=O)[C@H](Cc1ccccc1)NC(=O)[C@@H](NC(=O)[C@@H](N)CS)C(C)C` yielded a concentration for half-maximal inhibition (IC50) of 1400 nM.

`CCCC[C@H](NC(=O)[C@H](Cc1ccccc1)NC(=O)[C@@H](NC(=O)[C@@H](N)CS)C(C)C)C(=O)O` gave an IC50 of 950 nM.

`CSCC[C@H](NC(=O)[C@H](Cc1ccccc1)NC(=O)[C@@H](NC(=O)[C@@H](N)CCS)C(C)C)C(=O)O` (stereo in doubt; form 1) displayed an IC50 of 510 nM.

In turn, `CSCC[C@H](NC(=O)[C@H](Cc1ccccc1)NC(=O)[C@@H](NC(=O)[C@@H](N)CCS)C(C)C)C(=O)O` (stereo in doubt; form 2) displayed a half-inhibitory concentration (IC50) of 2700 nM.
